Tests used:
[1] = system: barnyardgrass; experiment: Test A preemergence; assay type: in vivo, Echinochloa crus-galli; conditions: for Plant response rating, Barnyardgrass: 125 g ai/ha, 0 to 100 scale where 0 is no effect and 100 is complete control; for Barnyardgrass plant response rating: 500 g ai/ha, 0 to 100 scale, 0 no effect, 100 complete control, approx. 10 days
Outline: (§1)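 Compounds in non-phytotoxic solvent with surfactant applied as soil spray preemergence, or postemergence to plants 2-10 cm at one- to two-leaf stage, in loam/sand. After approximately 10 days in greenhouse, injury rated visually versus untreated controls, 0 (no effect) to 100 (complete control).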

[2] = system: large (Lg) crabgrass; experiment: Test A preemergence; assay type: in vivo, Digitaria sanguinalis; conditions: for Plant response rating, Crabgrass, Large: 125 g ai/ha, 0 to 100 scale where 0 is no effect and 100 is complete control; for Crabgrass, Large plant response rating: 500 g ai/ha, 0 to 100 scale, 0 no effect, 100 complete control, approx. 10 days
Outline: as §1

[3] = system: giant foxtail; experiment: Test A preemergence; assay type: in vivo, Setaria faberii; conditions: for Plant response rating, Foxtail, Giant: 125 g ai/ha, 0 to 100 scale where 0 is no effect and 100 is complete control; for Foxtail, Giant plant response rating: 500 g ai/ha, 0 to 100 scale, 0 no effect, 100 complete control, approx. 10 days
Outline: as §1

[4] = system: morningglory; experiment: Test A preemergence; assay type: in vivo, Ipomoea spp.; conditions: for Plant response rating, Morningglory: 125 g ai/ha, 0 to 100 scale where 0 is no effect and 100 is complete control; for Morningglory plant response rating: 500 g ai/ha, 0 to 100 scale, 0 no effect, 100 complete control, approx. 10 days
Outline: as §1

[5] = system: pigweed; experiment: Test A preemergence; assay type: in vivo, Amaranthus retroflexus; conditions: for Plant response rating, Pigweed: 125 g ai/ha, 0 to 100 scale where 0 is no effect and 100 is complete control; for Pigweed plant response rating: 500 g ai/ha, 0 to 100 scale, 0 no effect, 100 complete control, approx. 10 days
Outline: as §1

[6] = system: velvetleaf; experiment: Test A preemergence; assay type: in vivo, Abutilon theophrasti; conditions: for Plant response rating, Velvetleaf: 125 g ai/ha, 0 to 100 scale where 0 is no effect and 100 is complete control; for Velvetleaf plant response rating: 500 g ai/ha, 0 to 100 scale, 0 no effect, 100 complete control, approx. 10 days
Outline: as §1

[7] = system: wheat; experiment: Test A preemergence; assay type: in vivo, Triticum aestivum; conditions: for Plant response rating, Wheat: 125 g ai/ha, 0 to 100 scale where 0 is no effect and 100 is complete control; for Wheat plant response rating: 500 g ai/ha, 0 to 100 scale, 0 no effect, 100 complete control, approx. 10 days
Outline: as §1

[8] = system: corn; experiment: Test A preemergence; assay type: in vivo, Zea mays; conditions: for Plant response rating, Corn: 125 g ai/ha, 0 to 100 scale where 0 is no effect and 100 is complete control; for Corn plant response rating: 500 g ai/ha, 0 to 100 scale, 0 no effect, 100 complete control, approx. 10 days
Outline: as §1

[9] = system: barnyardgrass; experiment: Test A postemergence; assay type: in vivo, Echinochloa crus-galli
Outline: as §1

[10] = system: large (Lg) crabgrass; experiment: Test A postemergence; assay type: in vivo, Digitaria sanguinalis
Outline: as §1

[11] = system: giant foxtail; experiment: Test A postemergence; assay type: in vivo, Setaria faberii; conditions: 0 to 100 scale where 0 is no effect and 100 is complete control
Outline: as §1

[12] = system: morningglory; experiment: Test A postemergence; assay type: in vivo, Ipomoea spp.; conditions: 0 to 100 scale where 0 is no effect and 100 is complete control
Outline: as §1

[13] = system: pigweed; experiment: Test A postemergence; assay type: in vivo, Amaranthus retroflexus; conditions: 0 to 100 scale where 0 is no effect and 100 is complete control
Outline: as §1

[14] = system: velvetleaf; experiment: Test A postemergence; assay type: in vivo, Abutilon theophrasti; conditions: 0 to 100 scale where 0 is no effect and 100 is complete control
Outline: as §1

[15] = system: wheat; experiment: Test A postemergence; assay type: in vivo, Triticum aestivum; conditions: 0 to 100 scale where 0 is no effect and 100 is complete control
Outline: as §1

[16] = system: corn; experiment: Test A postemergence; assay type: in vivo, Zea mays
Outline: as §1

[17] = system: rice; experiment: Test B flooded paddy test; assay type: in vivo, Oryza sativa; conditions: Flood, 250 g ai/ha; 0 to 100 scale where 0 is no effect and 100 is complete control
Outline: (§2)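 Flooded to 3 cm at the 2-leaf stage, pots received compound through the paddy water and were kept at that depth under greenhouse conditions. After 13–15 days, effect was rated by eye relative to controls, 0 = none and 100 = complete control.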

[18] = system: sedge, umbrella; experiment: Test B flooded paddy test; assay type: in vivo, Cyperus difformis; conditions: Flood, 250 g ai/ha; 0 to 100 scale where 0 is no effect and 100 is complete control
Outline: as §2

[19] = system: Heteranthera limosa; experiment: Test B flooded paddy test; assay type: in vivo; conditions: Flood, 250 g ai/ha; 0 to 100 scale where 0 is no effect and 100 is complete control
Outline: as §2

[20] = system: barnyardgrass; experiment: Test B flooded paddy test; assay type: in vivo, Echinochloa crus-galli; conditions: Flood, 250 g ai/ha; 0 to 100 scale where 0 is no effect and 100 is complete control
Outline: as §2

[21] = 125 g ai/ha, 0 to 100 scale where 0 is no effect and 100 is complete control
[22] = 500 g ai/ha, 0 to 100 scale, 0 no effect, 100 complete control
[23] = 500 g ai/ha, 0 to 100 scale where 0 is no effect and 100 is complete control

Row | SMILES | Plant response rating, Barnyardgrass [1] | Barnyardgrass plant response rating [1] | Plant response rating, Crabgrass, Large [2] | Crabgrass, Large plant response rating [2] | Plant response rating, Foxtail, Giant [3] | Foxtail, Giant plant response rating [3] | Plant response rating, Morningglory [4] | Morningglory plant response rating [4] | Plant response rating, Pigweed [5] | Pigweed plant response rating [5] | Plant response rating, Velvetleaf [6] | Plant response rating, Wheat [7] | Plant response rating, Corn [8] | Corn plant response rating [8] | Plant response rating, Barnyardgrass [9, 21] | Plant response rating, Crabgrass, Large [10, 21] | Plant response rating, Foxtail, Giant ([11]; 125 g ai/ha) | Plant response rating, Foxtail, Giant ([11]; 500 g ai/ha) | Plant response rating, Morningglory ([12]; 125 g ai/ha) | Plant response rating, Morningglory ([12]; 500 g ai/ha) | further results
1 | Cc1cnc(Oc2cccc(C#N)c2-n2cc(Br)cn2)nc1 [Compound 76] | 50 | 100 | 100 | 100 | 80 | 100 | 0 | 80 | 100 | 100 | 90 | 0 | 20 | 30 | 60 | 70 | 60 | 90 | 60 | 90 | Velvetleaf plant response rating [6]: 100; Wheat plant response rating [7]: 30; Plant response rating, Barnyardgrass [9, 22]: 100; Plant response rating, Crabgrass, Large [10, 22]: 100; Plant response rating, Pigweed ([13]; 125 g ai/ha): 90; Plant response rating, Pigweed ([13]; 500 g ai/ha): 100; Plant response rating, Velvetleaf ([14]; 125 g ai/ha): 80; Plant response rating, Velvetleaf ([14]; 500 g ai/ha): 100; Plant response rating, Wheat ([15]; 125 g ai/ha): 0; Plant response rating, Wheat ([15]; 500 g ai/ha): 10; Plant response rating, Corn [16, 21]: 10; Plant response rating, Corn [16, 22]: 80; Plant response rating, Rice [17]: 0; Plant response rating, Sedge, Umbrella [18]: 75; Plant response rating, Ducksalad [19]: 70; Plant response rating, Barnyardgrass [20]: 0
2 | FC(F)(F)c1cccc(Oc2ncc(Br)cn2)c1-n1cc(Br)cn1 [Compound 77] | 50 | 90 | 90 | 100 | 90 | 100 | 10 | 60 | 100 | 100 | 60 | 0 | 0 | 0 | 40 | 50 | 50 | 90 | 70 | 100 | Velvetleaf plant response rating [6]: 100; Wheat plant response rating [7]: 0; Plant response rating, Barnyardgrass [9, 22]: 70; Plant response rating, Crabgrass, Large [10, 22]: 90; Plant response rating, Pigweed ([13]; 125 g ai/ha): 100; Plant response rating, Pigweed ([13]; 500 g ai/ha): 100; Plant response rating, Velvetleaf ([14]; 125 g ai/ha): 80; Plant response rating, Velvetleaf ([14]; 500 g ai/ha): 100; Plant response rating, Wheat ([15]; 125 g ai/ha): 0; Plant response rating, Wheat ([15]; 500 g ai/ha): 30; Plant response rating, Corn [16, 21]: 20; Plant response rating, Corn [16, 22]: 40; Plant response rating, Rice [17]: 20; Plant response rating, Sedge, Umbrella [18]: 70; Plant response rating, Ducksalad [19]: 40; Plant response rating, Barnyardgrass [20]: 0
3 | Cc1cnn(-c2c(C#N)cccc2Oc2ncc(Cl)cn2)c1 [Compound 95] | 50 | 100 | 100 | 100 | 100 | 100 | 50 | 100 | 90 | 100 | 90 | 0 | 0 | 40 | 50 | 40 | 40 | 80 | 60 | 90 | Plant response rating, Barnyardgrass [9, 23]: 80; Plant response rating, Crabgrass, Large [10, 23]: 90; Plant response rating, Pigweed ([13]; 125 g ai/ha): 100; Plant response rating, Pigweed ([13]; 500 g ai/ha): 100; Plant response rating, Velvetleaf ([14]; 125 g ai/ha): 70; Plant response rating, Velvetleaf ([14]; 500 g ai/ha): 100; Plant response rating, Wheat ([15]; 125 g ai/ha): 0; Plant response rating, Wheat ([15]; 500 g ai/ha): 40; Plant response rating, Corn [16, 21]: 10; Plant response rating, Corn [16, 23]: 70; Plant response rating, Rice [17]: 0; Plant response rating, Sedge, Umbrella [18]: 50; Plant response rating, Ducksalad [19]: 40; Plant response rating, Barnyardgrass [20]: 0

From patent US9695155B2, “Herbicidal substituted pyrimidinyloxy benzene compounds” (E. I. DU PONT DE NEMOURS AND COMPANY, priority 2013, dated 2017)
